# Laboratory results published in patent US6737383B1, “Herbicidal oxadiazolidines” (priority 1999, dated 2004).
# Assays:
# duck salad = assay: Test B flood test duck salad; format: in vivo, Heteranthera limosa
# Method in brief: (§1)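 Plants were grown to the 2-leaf stage before treatment with test chemical, then held in a greenhouse for twelve to sixteen days. Injury was visually rated against untreated controls on a 0–10 scale, where 0 is no effect and 10 is complete control.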
# morningglory = assay: Test B pre/postemergence morningglory; format: in vivo, Ipomoea hederacea
# Method in brief: (§2)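 Herbicidal effect was estimated by eye on a ten-point control scale after plants spent twelve to sixteen days in a greenhouse following soil or foliar treatment. Foliar sprays targeted plants at one to four leaves; all doses were formulated in a non-phytotoxic solvent with surfactant.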
# rice = assay: Test B flood test rice; format: in vivo, Oryza sativa
# Method in brief: as §1
# corn = assay: Test B pre/postemergence corn; format: in vivo, Zea mays
# Method in brief: as §2
# rape = assay: Test B pre/postemergence rape; format: in vivo, Brassica napus
# Method in brief: as §2
# wild oat = assay: Test B pre/postemergence wild oat; format: in vivo, Avena fatua
# Method in brief: as §2
# smallflower flatsedge = assay: Test B flood test smallflower flatsedge; format: in vivo, Cyperus difformis
# Method in brief: as §1
# purple nutsedge = assay: Test B pre/postemergence purple nutsedge; format: in vivo, Cyperus rotundus
# Method in brief: as §2
# surinam grass = assay: Test B pre/postemergence surinam grass; format: in vivo, Brachiaria decumbens
# Method in brief: as §2
# bedstraw = assay: Test B pre/postemergence bedstraw; format: in vivo, Galium aparine; settings: Preemergence, scale of 0 to 10 where 0 is no effect and 10 is complete control
# Method in brief: as §2
# wheat = assay: Test B pre/postemergence wheat; format: in vivo, Triticum aestivum
# Method in brief: as §2
# velvetleaf = assay: Test B pre/postemergence velvetleaf; format: in vivo, Abutilon theophrasti
# Method in brief: as §2
# blackgrass = assay: Test B pre/postemergence blackgrass; format: in vivo, Alopecurus myosuroides
# Method in brief: as §2
# soybean = assay: Test B pre/postemergence soybean; format: in vivo, Glycine max
# Method in brief: as §2
# crabgrass = assay: Test B pre/postemergence crabgrass; format: in vivo, Digitaria sanguinalis
# Method in brief: as §2
# giant foxtail = assay: Test B pre/postemergence giant foxtail; format: in vivo, Setaria faberii
# Method in brief: as §2
# [1] = Rate 62 g/ha, headed Pre-emergence (flood test species), scale 0 to 10 (0 no effect, 10 complete control)
# [2] = Rate 125 g/ha, Pre-emergence, flood test species, scale 0 to 10 where 0 is no effect and 10 is complete control
# [3] = Rate 250 g/ha, Pre-emergence, flood-test species, scale 0 to 10, 0 is no effect, 10 is complete control
# [4] = Rate 500 g/ha, Pre-emergence, flood test species, scale 0 to 10 (0 no effect, 10 complete control)
# [5] = Preemergence, Rate 62 g/ha, scale of 0 to 10 where 0 is no effect and 10 is complete control
# [6] = Preemergence, Rate 250 g/ha, scale of 0 to 10 where 0 is no effect and 10 is complete control
# [7] = Preemergence, Rate 500 g/ha, scale of 0 to 10 where 0 is no effect and 10 is complete control
# [8] = Rate 62 g/ha, Postemergence, scale 0 to 10 (0 no effect, 10 complete control)
# [9] = Rate 125 g/ha, Postemergence, scale of 0 to 10 where 0 is no effect and 10 is complete control
# [10] = Rate 125 g/ha, Preemergence, scale of 0 to 10 where 0 is no effect and 10 is complete control
# [11] = Rate 250 g/ha, Postemergence, scale of 0 to 10 where 0 is no effect and 10 is complete control
# [12] = Rate 500 g/ha, Postemergence, scale 0 to 10, 0 no effect, 10 complete control
structure (smiles),measurement,setting,value
CC1Cc2cccc(-n3c(=O)on(C(=O)N(c4ccc(F)cc4)C(C)C)c3=O)c2O1 (centres unmarked) [Compound 281],Ducksalad plant response rating,duck salad; [1],0
same,Ducksalad plant response rating,duck salad; [2],0
same,Ducksalad plant response rating,duck salad; [3],0
same,Ducksalad plant response rating,duck salad; [4],0
same,Morningglory plant response rating,morningglory; [5],0
same,Morningglory plant response rating,morningglory; [6],0
same,"Plant response rating, Morningglory",morningglory; [7],0
same,Morningglory plant response rating,morningglory; [8],2
same,Morningglory plant response rating,morningglory; [9],2
same,Morningglory plant response rating,morningglory; [10],0
same,"Plant response rating, Morningglory",morningglory; [11],3
same,Morningglory plant response rating,morningglory; [12],5
same,Rice plant response rating,rice; [1],0
same,Rice plant response rating,rice; [2],0
same,Rice plant response rating,rice; [3],0
same,Rice plant response rating,rice; [4],0
same,Corn plant response rating,corn; [5],0
same,Corn plant response rating,corn; [6],0
same,"Plant response rating, Corn",corn; [7],0
same,Corn plant response rating,corn; [8],0
same,Corn plant response rating,corn; [9],0
same,Corn plant response rating,corn; [10],0
same,"Plant response rating, Corn",corn; [11],0
same,Corn plant response rating,corn; [12],0
same,Rape plant response rating,rape; [5],0
same,Rape plant response rating,rape; [6],0
same,"Plant response rating, Rape",rape; [7],0
same,Rape plant response rating,rape; [8],0
same,Rape plant response rating,rape; [9],0
same,Rape plant response rating,rape; [10],0
same,"Plant response rating, Rape",rape; [11],0
same,Rape plant response rating,rape; [12],0
same,Wild oats plant response rating,wild oat; [5],0
same,Wild oats plant response rating,wild oat; [6],2
same,"Plant response rating, Wild oats",wild oat; [7],3
same,Wild oats plant response rating,wild oat; [8],0
same,Wild oats plant response rating,wild oat; [9],0
same,"Plant response rating, Wild oats",wild oat; [11],0
same,Wild oats plant response rating,wild oat; [12],0
same,S. Flatsedge plant response rating,smallflower flatsedge; [1],0
same,S. Flatsedge plant response rating,smallflower flatsedge; [2],0
same,S. Flatsedge plant response rating,smallflower flatsedge; [3],0
same,S. Flatsedge plant response rating,smallflower flatsedge; [4],0
same,Nutsedge plant response rating,purple nutsedge; [5],0
same,Nutsedge plant response rating,purple nutsedge; [6],0
same,"Plant response rating, Nutsedge",purple nutsedge; [7],0
same,Nutsedge plant response rating,purple nutsedge; [8],0
same,Nutsedge plant response rating,purple nutsedge; [9],0
same,Nutsedge plant response rating,purple nutsedge; [10],0
same,"Plant response rating, Nutsedge",purple nutsedge; [11],0
same,Nutsedge plant response rating,purple nutsedge; [12],0
same,B. signalgrass plant response rating,surinam grass; [5],0
same,B. signalgrass plant response rating,surinam grass; [6],0
same,"Plant response rating, B. signalgrass",surinam grass; [7],0
same,B. signalgrass plant response rating,surinam grass; [8],0
same,B. signalgrass plant response rating,surinam grass; [9],0
same,B. signalgrass plant response rating,surinam grass; [10],0
same,"Plant response rating, B. signalgrass",surinam grass; [11],0
same,B. signalgrass plant response rating,surinam grass; [12],0
same,Bedstraw plant response rating,bedstraw; Rate 62 g/ha,0
same,Bedstraw plant response rating,bedstraw; Rate 250 g/ha,6
same,"Plant response rating, Bedstraw",bedstraw; Rate 500 g/ha,10
same,Bedstraw plant response rating,bedstraw; Rate 125 g/ha,3
same,Wheat plant response rating,wheat; [5],0
same,Wheat plant response rating,wheat; [6],0
same,"Plant response rating, Wheat",wheat; [7],0
same,Wheat plant response rating,wheat; [8],0
same,Wheat plant response rating,wheat; [9],0
same,Wheat plant response rating,wheat; [10],0
same,"Plant response rating, Wheat",wheat; [11],0
same,Wheat plant response rating,wheat; [12],0
same,Velvetleaf plant response rating,velvetleaf; [5],0
same,Velvetleaf plant response rating,velvetleaf; [6],0
same,"Plant response rating, Velvetleaf",velvetleaf; [7],0
same,Velvetleaf plant response rating,velvetleaf; [8],0
same,Velvetleaf plant response rating,velvetleaf; [9],1
same,Velvetleaf plant response rating,velvetleaf; [10],0
same,"Plant response rating, Velvetleaf",velvetleaf; [11],1
same,Velvetleaf plant response rating,velvetleaf; [12],1
same,Blackgrass plant response rating,blackgrass; [5],0
same,Blackgrass plant response rating,blackgrass; [6],2
same,"Plant response rating, Blackgrass",blackgrass; [7],4
same,Blackgrass plant response rating,blackgrass; [8],0
same,Blackgrass plant response rating,blackgrass; [9],0
same,Blackgrass plant response rating,blackgrass; [10],1
same,"Plant response rating, Blackgrass",blackgrass; [11],0
same,Blackgrass plant response rating,blackgrass; [12],2
same,Soybean plant response rating,soybean; [5],0
same,Soybean plant response rating,soybean; [6],0
same,"Plant response rating, Soybean",soybean; [7],0
same,Soybean plant response rating,soybean; [8],2
same,Soybean plant response rating,soybean; [10],0
same,"Plant response rating, Soybean",soybean; [11],3
same,Soybean plant response rating,soybean; [12],3
same,Crabgrass plant response rating,crabgrass; [5],2
same,Crabgrass plant response rating,crabgrass; [6],10
same,"Plant response rating, Crabgrass",crabgrass; [7],10
same,Crabgrass plant response rating,crabgrass; [8],0
same,Crabgrass plant response rating,crabgrass; [9],0
same,Crabgrass plant response rating,crabgrass; [10],10
same,"Plant response rating, Crabgrass",crabgrass; [11],0
same,Crabgrass plant response rating,crabgrass; [12],0
same,Giant foxtail plant response rating,giant foxtail; [5],7
same,Giant foxtail plant response rating,giant foxtail; [6],10
same,"Plant response rating, Giant foxtail",giant foxtail; [7],10
same,Giant foxtail plant response rating,giant foxtail; [8],0
same,Giant foxtail plant response rating,giant foxtail; [9],0
same,Giant foxtail plant response rating,giant foxtail; [10],9
same,"Plant response rating, Giant foxtail",giant foxtail; [11],0
same,Giant foxtail plant response rating,giant foxtail; [12],0
